Results as given in ChEMBL document CHEMBL3393049, “Syntheses and Antituberculosis Activity of 1,3-Benzothiazinone Sulfoxide and Sulfone Derived from BTZ043” (ACS Med Chem Lett, 2015).
≈ marks a conversion by molar mass, not a printed value.

Tested on: Mycobacterium tuberculosis variant bovis BCG
Test: Antimycobacterial activity against Mycobacterium bovis BCG ATCC 35734 assessed as reduction in bacterial growth incubated for 6 days by MABA method
Format: functional
Settings: ATCC 35734, 144 h

| SMILES | MIC |
| --- | --- |
| NNC(=O)c1ccncc1 [ISONIAZID] | 0.5 µM (≈ 0.0686 µg/mL) |
| CO[C@H]1/C=C/O[C@@]2(C)Oc3c(C)c(O)c4c(O)c(c(/C=N/N5CCN(C)CC5)c(O)c4c3C2=O)NC(=O)/C(C)=C\C=C\[C@H](C)[C@H](O)[C@@H](C)[C@@H](O)[C@@H](C)[C@H](OC(C)=O)[C@@H]1C [RIFAMPIN] | 0.02 µM (≈ 0.0165 µg/mL) |
| C[C@H]1COC2(CCN(C3=NC(=O)c4cc(C(F)(F)F)cc([N+](=O)[O-])c4S3(=O)=O)CC2)O1 | > 1 µM |
| C[C@H]1COC2(CCN(c3nc(=O)c4cc(C(F)(F)F)cc([N+](=O)[O-])c4[s+]3[O-])CC2)O1 (stereo not given in full) | 0.21 µM (≈ 0.094 µg/mL) |
| C[C@H]1COC2(CCN(c3nc(=O)c4cc(C(F)(F)F)cc([N+](=O)[O-])c4s3)CC2)O1 [BTZ-043] | < 0.02 µM |
